{"source": "patent US20140018384A1", "about": "“QUINOLINONE DERIVATIVES FOR USE IN THE TREATMENT OF AN AUTOIMMUNE DISEASE AND/OR AN INFLAMMATORY DISEASE” (PRONOXIS AB, priority 2011, published 2014)", "key": {"PLB-985 cells": {"tested_on": "PLB-985 cells", "test": "ROS production (isoluminol/HRP luminescence) in PLB-985 cells, Biological Example 1", "format": "cell-based", "conditions": "25 μM compound vs. DMSO", "method_in_brief": "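Cells in HBSS received compound plus isoluminol and HRP; luminescence followed 10–30 min, AUC divided by control to give fold change in NADPH oxidase activity. HL-60: 50 μM compound vs blank; PLB-985: 25 μM compound vs blank or vs DMSO.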"}, "Rat granulocytes": {"tested_on": "Rat granulocytes", "test": "ROS production in thioglycollate-recruited rat granulocytes, isoluminol chemiluminescence assay", "format": "cell-based", "conditions": "25 μM compound, compared to DMSO control cells; FIGS. 2A and B", "experimental": "(§1) FIG. 2: ROS production and effect on T cell arthritogeniciy of ROS inducing substances. A-B). Thioglycolate recruited rat granulocytes (in accordance with the procedure in Biological Example 3) were treated with 25 μM substance and measurement of ROS production was initiated immediately using an isoluminol based chemiluminescence assay (FIGS. 2A and 2B). […] C-D) Arthritogenic rat splenocytes were treated with 12.5 μM substance during 44 hours ex vivo incubation in presence of ConA (FIGS. 2C and 2D). Following incubation, cells were washed and injected i.p. into naive recipient rats (n=8-11). Disease severity in recipient rats was followed by investigation of macroscopic swelling and redness of the rat joints. Treatment with substance during ex vivo stimulation prevented transfer of arthritogenic T cells.\nRat granulocytes were recruited to the peritoneum by an i.p. injection of 2.4% thioglycollate medium (autoclaved). The peritoneal cavity was washed after 24 hours with ice cold HBSS. Collected cells were, after lysis of red blood cells, washed and resupended in HBSS. In a total volume of 100 μl, compound (25 μM), isoluminol (0.175 mg/ml) and horseradish peroxidase (fraction II) (1.75 U/ml) was added to the cells (0.1*10̂6/well) and resulting ROS production detected as a luminescence signal (fluorescent unit, FU) over time. […] All samples were analysed at least in duplicates."}, "arthritogenic T cells": {"tested_on": "arthritogenic T cells", "test": "Adoptive transfer of ex vivo treated arthritogenic T cells (splenocytes) to naive recipient DA rats", "format": "in vivo, rat", "conditions": "for T cells capacity to transfer arthritis to naive recipients: 12.5 μM substance, 44 hours ex vivo with ConA, cells injected i.p. into DA rats, FIGS. 2C and D", "experimental": "Arthritogenic cells were treated with H2O2 (176-1.76 μM) for 20 min and A) granulocytes and B) T cells (see FIGS. 1A and 1B) were investigated for intracellular ROS using a DHR-123 based flow cytometric assay. […] Arthritogenic cells were cultured in presence of Con A and w/wo H2O2 (176-1.76 μM) for 44 hours and then transferred to naïve recipient rats (n=7-9).\nas §1\nIn order to investigate the effect of ROS on T cell arthritogenicity, spleens were collected from arthritis susceptible DA rats injected with the arthritis inducing oil pristane (0.5 ml per rat s.c.) day −13. Single cell suspensions were prepared from the spleens and red blood cells were lysed. After wash, cells were resuspended in cell culture medium containing concanavalin A (ConA) to a final concentration of 4.5×10̂6 cells/ml. […] The cells were incubated for 44 hours at 37° C. After incubation the cells were washed and resuspended in PBS to a final concentration of 60*10̂6 cells/ml. Cells were injected i.p. (1 ml/rat) into naïve recipient DA rats and disease was followed by macroscopic evaluation of disease.\nIn order to investigate the effect of ROS inducing substances on T cell arthritogenicity, spleens were collected from arthritis susceptible DA rats injected with the arthritis inducing oil pristane (0.5 ml per rat s.c.) day −13. Single cell suspensions were prepared from the spleens and red blood cells were lysed.\nAfter wash, cells were resuspended in cell culture medium containing concanavalin A (ConA) to a final concentration of 4.5×10̂6 cells/ml. Substance A or B was added to the cells to a final concentration of 12.5 μM. The cells were incubated for 44 hours at 37° C. Control cells were incubated in presence of vehicle control (DMSO). After incubation the cells were washed and resuspended in PBS to a final concentration of C) 30*10̂6 and D) 60*10̂6 cells/ml. Cells were injected i.p. (1 ml/rat) into naïve recipient DA rats and disease was followed by macroscopic evaluation of disease (n=8-11)."}, "granulocytes and T cells": {"tested_on": "granulocytes and T cells", "conditions": "H2O2 176-1.76 μM for 20 min", "quoted_text": "In order to measure the effect of exogenous ROS on intracellular ROS content, single cell suspensions were prepared from rat spleens. After lysis of red blood cells (0.84% ammonium chloride) the cells were stained with antibody His-48-bio (anti-granulocyte) or R73-bio (anti-T cell receptor) followed by staining with streptavidine-APC. Cells were then resuspended in DMEM containing DHR-123 and incubated for 10 minutes at 37° C. […] After 20 minutes incubation, cells were washed, resuspended in PBS and acquired in a FACScalibur. […] Samples were analysed in triplicates."}, "HL-60 cells": {"tested_on": "HL-60 cells", "test": "ROS production (isoluminol/HRP luminescence) in HL-60 cells, Biological Example 1", "format": "cell-based", "conditions": "Homo sapiens, 50 μM compound vs. blank, read-out: Activity A (fold increase of NADPH activity compared to control)", "experimental": "To cells (HL-60 or PLB-985) in HBSS medium was added compound (25 or 50 μM), isoluminol and Horse Radish Peroxidase, fraction II. Luminescence was measured for 10-30 minutes and the area under the […] curve was divided by that from a control experiment to give the activity expressed as fold change.\nEach assay indicated below was performed at a different site, at a different time, by different personnel and/or using different cell lines, concentrations and controls. The cell line, concentration of example compound and control used in respect of each assay were as indicated below. The values obtained from these different setups (each using an otherwise identical assay) are given as Activity A, B, C, D or E in Table 5 below. The values are expressed as fold increase of NADPH activity in the presence of the relevant of compound (as indicated below) compared to the relevant control (as indicated below).\nActivity A: HL-60 cells; 50 μM compound vs. blank Activity B: PLB-985 cells; 25 μM compound vs. blank Activity C, D and E: PLB-985 cells; 25 μM compound vs. DMSO"}, "[1]": {"conditions": "setup C, read-out: Activity C (fold increase of NADPH activity compared to control)"}}, "note": "Read-outs that look alike come from different tables or passages of the source."}
{"smiles": "O=C(Cn1cc(C(=O)c2ccc3ccccc3c2)c(=O)c2cc3c(cc21)OCO3)Nc1ccc(Cl)cc1", "note": "[Example 1, N-(4-Chlorophenyl)-2-[6,7-methylenedioxy-3-(2-naphthoyl)-4-oxo-1-quinolinyl]-acetamide]", "values": [{"measurement": "fold induction at 25 µM", "setting": "PLB-985 cells; [1]", "value": 45.3}, {"measurement": "fold induction at 25 µM", "setting": "PLB-985 cells; setup D, read-out: Activity D (fold increase of NADPH activity compared to control)", "value": 27.4}, {"measurement": "fold induction at 25 µM", "setting": "PLB-985 cells; setup E, read-out: Activity E (fold increase of NADPH activity compared to control)", "value": 8.5}, {"measurement": "cellular ROS production (luminescence signal over time)", "setting": "Rat granulocytes", "value": "clear induction of cellular ROS production"}, {"measurement": "T cells capacity to transfer arthritis to naive recipients", "setting": "arthritogenic T cells", "value": "significantly alters the T cells capacity to transfer arthritis to naïve recipients"}]}
{"smiles": "OO", "note": "[Example H2O2, Hydrogen peroxide, reference compound]", "values": [{"measurement": "mean arthritis severity in recipient rats", "setting": "arthritogenic T cells; cells cultured 44 hours with Con A at lower concentrations of H2O2 (below 88 μM)", "value": "the effect is lost"}, {"measurement": "mean arthritis severity in recipient rats", "setting": "arthritogenic T cells; cells cultured 44 hours with Con A in presence of 176 μM and 88 μM H2O2", "value": "significant reduction"}, {"measurement": "intracellular ROS", "setting": "granulocytes and T cells", "value": "Intracellular ROS reflected amount of H2O2 added"}]}
{"smiles": "COc1ccc(NC(=O)Cn2cc(C(=O)c3ccccc3)c(=O)c3cc4c(cc32)OCO4)c(OC)c1", "note": "[Example 84, 2-(3-Benzoyl-6,7-methylenedioxy-4-oxo-1-quinolinyl)-N-(2,4-dimethoxyphenyl)acetamide]", "values": [{"measurement": "fold induction at 25 µM", "setting": "PLB-985 cells; [1]", "value": 8.4}, {"measurement": "cellular ROS production (luminescence signal over time)", "setting": "Rat granulocytes", "value": "clear induction of cellular ROS production"}, {"measurement": "T cells capacity to transfer arthritis to naive recipients", "setting": "arthritogenic T cells", "value": "significantly alters the T cells capacity to transfer arthritis to naïve recipients"}]}
{"smiles": "O=C(Cn1cc(C(=O)c2ccc(Cl)cc2)c(=O)c2cc3c(cc21)OCO3)Nc1ccc(F)cc1", "note": "[Example 92, 2-[3-(4-Chlorobenzoyl)-6,7-methylenedioxy-4-oxo-1-quinolinyl]-N-(4-fluorophenyl)acetamide]", "values": [{"measurement": "fold induction at 50 µM", "setting": "HL-60 cells", "value": 8.2}]}
{"smiles": "CCOc1ccc2c(c1)c(=O)c(C(=O)c1ccc(C)cc1)cn2CC(=O)Nc1ccccc1C", "note": "[Example 91, 2-(6-Ethoxy-4-oxo-3-p-toluoyl-1-quinolinyl)-N-o-tolylacetamide]", "values": [{"measurement": "fold induction at 50 µM", "setting": "HL-60 cells", "value": 5.3}]}
{"smiles": "O=C(Cn1cc(S(=O)(=O)c2ccc(F)cc2)c(=O)c2cc3c(cc21)OCO3)Nc1ccccc1", "note": "[Example 96, 2-[3-(4-Fluorobenzenesulfonyl)-6,7-methylenedioxy-4-oxo-1-quinolinyl]-N-phenylacetamide]", "values": [{"measurement": "fold induction at 50 µM", "setting": "HL-60 cells", "value": 2.3}]}
{"smiles": "COc1ccc(NC(=O)Cn2cc(C(=O)c3ccc(F)cc3)c(=O)c3cc4c(cc32)OCO4)c(OC)c1", "note": "[Example 93, N-(2,4-Dimethoxyphenyl)-2-[3-(4-fluorobenzoyl)-6,7-methylenedioxy-4-oxo-1-quinolinyl]acetamide]", "values": [{"measurement": "fold induction at 50 µM", "setting": "HL-60 cells", "value": 2.9}]}
{"smiles": "CCOc1ccc(C(=O)c2cn(CC(=O)Nc3ccc(OC)cc3)c3cc4c(cc3c2=O)OCO4)cc1", "note": "[Example 94, N-p-Anisyl-2-[3-(4-ethoxybenzoyl)-6,7-methylenedioxy-4-oxo-1-quinolinyl]acetamide]", "values": [{"measurement": "fold induction at 50 µM", "setting": "HL-60 cells", "value": 8.4}]}
